From ChEMBL document CHEMBL1201862, “PubChem BioAssay data set” (2004)
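Grown in 96-well plates, cells were treated for 48 hours with each compound at five concentrations. Insufficient inhibition: endpoint recorded as highest concentration tested. GI50: concentration for 50% inhibition of growth.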 Activity calls are given as the source filed them. Cut-off read from the data, not from the text of the source: active = GI50 up to about 1.1 µM and inactive = higher.

What was measured:
Experiment in all cases: inhibition of tumour cell growth, NCI panel, 48 h
IGROV-1 = system: IGROV-1
NCI-H23 = system: NCI-H23
NCI-H226 = system: NCI-H226
SF-539 = system: SF-539
UACC-257 = system: UACC-257
SK-MEL-2 = system: SK-MEL-2
RXF 393 = system: RXF 393
SW-620 = system: SW-620
RPMI-8226 = system: RPMI-8226
OVCAR-8 = system: OVCAR-8
HOP-62 = system: HOP-62
TK-10 = system: TK-10
T47D = system: T47D
DU-145 = system: DU-145
BT-549 = system: BT-549
COLO 205 = system: COLO 205
A549 = system: A549
HL-60 = system: HL-60
SNB-75 = system: SNB-75
MDA-N = system: MDA-N

Measured: GI50

COC(=O)C1(C)CC2C(C)(CCC3(C)C4=CC=C5C(=CC(=O)C(O)=C5C)C4(C)CCC23C)CC1O (stereo not drawn)
inactive: NCI-H23 2.05 µM | NCI-H226 2.12 µM | UACC-257 1.72 µM | SK-MEL-2 1.68 µM | HOP-62 1.86 µM | DU-145 1.36 µM | A549 2.29 µM | SNB-75 1.92 µM
active: IGROV-1 0.331 µM | SF-539 1.1 µM | RXF 393 0.429 µM | SW-620 0.405 µM | RPMI-8226 0.283 µM | OVCAR-8 0.822 µM | TK-10 0.624 µM | T47D 0.495 µM | BT-549 0.851 µM | COLO 205 0.627 µM | HL-60 0.216 µM

O=C1c2cc3c(cc2CC12Cc1cc4c(cc1C2=O)CCC4)CCC3
inactive: IGROV-1 > 100 µM | NCI-H23 > 100 µM | NCI-H226 > 100 µM | SF-539 > 100 µM | UACC-257 > 100 µM | SK-MEL-2 > 100 µM | RXF 393 21.8 µM | SW-620 > 100 µM | RPMI-8226 > 100 µM | OVCAR-8 > 100 µM | HOP-62 > 100 µM | TK-10 > 100 µM | T47D > 100 µM | DU-145 > 100 µM | BT-549 > 100 µM | COLO 205 > 100 µM | A549 > 100 µM | HL-60 > 100 µM | SNB-75 > 100 µM

O=C1NC(=N/c2ccccc2)/C(=N\c2ccccc2)N1c1ccccc1
inactive: IGROV-1 16.6 µM | NCI-H23 16.7 µM | NCI-H226 16.9 µM | SF-539 17.4 µM | UACC-257 15.8 µM | SK-MEL-2 15.1 µM | MDA-N 12.3 µM | RXF 393 15 µM | SW-620 16.5 µM | RPMI-8226 27 µM | OVCAR-8 15.8 µM | HOP-62 18.5 µM | TK-10 16.9 µM | T47D 15.1 µM | DU-145 12.4 µM | COLO 205 14.8 µM | A549 15.9 µM | HL-60 26.2 µM | SNB-75 16.3 µM

CC1CC(C)(C)CC(OCCN2CCCCC2)(c2ccccc2)C1 (stereo not drawn)
inactive: IGROV-1 13.2 µM | NCI-H23 10.3 µM | NCI-H226 20.7 µM | SF-539 15.6 µM | UACC-257 11.6 µM | SK-MEL-2 17.8 µM | RXF 393 10.9 µM | SW-620 13.9 µM | RPMI-8226 4.51 µM | OVCAR-8 15.2 µM | HOP-62 13.2 µM | TK-10 13.3 µM | T47D 12.9 µM | DU-145 6.61 µM | BT-549 12.7 µM | COLO 205 7.71 µM | A549 11 µM | HL-60 11.4 µM | SNB-75 15.1 µM

O=C(Nc1ccccc1C(=O)NCc1ccccc1)/C(=C/c1ccccc1)NC(=O)c1ccccc1
inactive: IGROV-1 > 100 µM | NCI-H23 > 100 µM | NCI-H226 > 100 µM | SF-539 > 100 µM | UACC-257 > 100 µM | SK-MEL-2 > 100 µM | RXF 393 > 100 µM | SW-620 > 100 µM | RPMI-8226 > 100 µM | OVCAR-8 > 100 µM | HOP-62 > 100 µM | TK-10 > 100 µM | T47D > 100 µM | DU-145 > 100 µM | BT-549 > 100 µM | COLO 205 > 100 µM | A549 > 100 µM | HL-60 > 100 µM | SNB-75 92.7 µM

NCCC(=O)N[C@H](Cc1cc(O)c(O)c(SCC(NC(=O)CC[C@H](N)C(=O)O)C(=O)NCC(=O)O)c1)C(=O)O (stereo partly drawn)
inactive: IGROV-1 > 50 µM | NCI-H23 > 50 µM | NCI-H226 > 50 µM | UACC-257 > 50 µM | SK-MEL-2 > 50 µM | MDA-N > 50 µM | RXF 393 > 50 µM | SW-620 > 50 µM | RPMI-8226 > 50 µM | HOP-62 > 50 µM | TK-10 > 50 µM | DU-145 > 50 µM | BT-549 > 50 µM | COLO 205 > 50 µM | A549 > 50 µM | SNB-75 > 50 µM

COc1cccc2c1NC(=O)Cc1c-2[nH]c2ccccc12
inactive: IGROV-1 > 100 µM | NCI-H23 81.5 µM | NCI-H226 > 100 µM | SF-539 > 100 µM | SK-MEL-2 > 100 µM | RXF 393 > 100 µM | SW-620 > 100 µM | RPMI-8226 31.2 µM | HOP-62 > 100 µM | TK-10 > 100 µM | T47D 40.6 µM | DU-145 > 100 µM | COLO 205 > 100 µM | A549 > 100 µM | HL-60 > 100 µM | SNB-75 > 100 µM

NC(Cc1ccc(B(O)O)cc1)C(=O)NC(CO)CO (stereo not drawn)
inactive: IGROV-1 > 100 µM | NCI-H23 > 100 µM | NCI-H226 > 100 µM | SF-539 > 100 µM | UACC-257 > 100 µM | SK-MEL-2 > 100 µM | MDA-N > 100 µM | RXF 393 67.6 µM | SW-620 > 100 µM | RPMI-8226 > 100 µM | OVCAR-8 > 100 µM | HOP-62 > 100 µM | TK-10 > 100 µM | BT-549 > 100 µM | COLO 205 > 100 µM | A549 > 100 µM | SNB-75 > 100 µM

O=C1C=Cc2cscc21
inactive: IGROV-1 32.4 µM | NCI-H23 21.2 µM | SF-539 > 100 µM | UACC-257 > 100 µM | SK-MEL-2 79.1 µM | RXF 393 16.6 µM | SW-620 33.3 µM | RPMI-8226 20.4 µM | OVCAR-8 32.6 µM | HOP-62 > 100 µM | TK-10 42.5 µM | T47D 27.5 µM | DU-145 34.3 µM | BT-549 53.7 µM | COLO 205 47.4 µM | A549 62.7 µM | HL-60 29 µM | SNB-75 42.5 µM

CCCCCCC(=O)OC[n+]1ccc(-c2c(COC(=O)NC(C)C)c(COC(=O)NC(C)C)c3n2CCC3)cc1
inactive: IGROV-1 > 100 µM | NCI-H23 48.9 µM | NCI-H226 > 100 µM | SF-539 45.1 µM | UACC-257 > 100 µM | SK-MEL-2 > 100 µM | RXF 393 > 65.8 µM | SW-620 74.5 µM | RPMI-8226 38.5 µM | OVCAR-8 > 100 µM | HOP-62 > 64.3 µM | TK-10 > 100 µM | T47D > 100 µM | DU-145 > 82.4 µM | BT-549 > 91 µM | COLO 205 > 80.9 µM | A549 > 87.7 µM | HL-60 23.3 µM | SNB-75 > 68.1 µM

COc1cc(/C=C2\CCC(C)C3=C2NC(=S)NC3c2cc(OC)c(OC)c(OC)c2)cc(OC)c1OC (stereo not drawn)
inactive: IGROV-1 40.3 µM | UACC-257 53.8 µM | SK-MEL-2 > 100 µM | MDA-N 43.1 µM | RXF 393 34.1 µM | SW-620 96.2 µM | RPMI-8226 18.5 µM | OVCAR-8 54 µM | HOP-62 70.6 µM | TK-10 70.6 µM | DU-145 56.8 µM | A549 36.4 µM | HL-60 12.5 µM | SNB-75 25.6 µM

Oc1ccc(CCc2cc(O)cc(O)c2)cc1 [DIHYDRORESVERATROL]
inactive: IGROV-1 > 100 µM | NCI-H23 > 100 µM | NCI-H226 53.5 µM | SF-539 > 100 µM | UACC-257 > 100 µM | SK-MEL-2 > 100 µM | RXF 393 > 100 µM | SW-620 > 100 µM | RPMI-8226 23.4 µM | OVCAR-8 > 100 µM | HOP-62 > 100 µM | TK-10 > 100 µM | T47D > 100 µM | DU-145 > 100 µM | BT-549 > 100 µM | COLO 205 > 100 µM | A549 > 100 µM | HL-60 50.4 µM | SNB-75 > 100 µM

Cc1ccc(/C=N\NC2c3cc(Cl)ccc3Nc3nc(O)nc(C)c32)cc1 (stereo not drawn)
inactive: IGROV-1 84.3 µM | NCI-H23 > 100 µM | NCI-H226 > 100 µM | SF-539 > 100 µM | UACC-257 88.9 µM | SK-MEL-2 > 100 µM | RXF 393 > 100 µM | SW-620 67.8 µM | RPMI-8226 45 µM | OVCAR-8 72.6 µM | HOP-62 > 100 µM | TK-10 > 100 µM | COLO 205 58.1 µM | A549 > 100 µM | HL-60 43.3 µM | SNB-75 > 100 µM

CC1COC(C)(C)P(=O)(c2ccccc2)C1 (stereo not drawn)
inactive: IGROV-1 > 100 µM | NCI-H23 > 100 µM | NCI-H226 > 100 µM | SF-539 > 100 µM | UACC-257 > 100 µM | SK-MEL-2 > 100 µM | RXF 393 > 100 µM | SW-620 > 100 µM | RPMI-8226 > 100 µM | OVCAR-8 > 100 µM | HOP-62 > 100 µM | TK-10 > 100 µM | COLO 205 > 100 µM | A549 > 100 µM | HL-60 > 100 µM | SNB-75 49.4 µM

COc1cc(/C=C2\[C@@H]3NC(Cc4c(OC)c(C)c(OC)c(OC)c43)C(=O)N2Cc2ccccc2)c(OC)c(C)c1OC
inactive: IGROV-1 34.1 µM | NCI-H23 49.7 µM | NCI-H226 36.7 µM | SF-539 66.4 µM | UACC-257 34.7 µM | SK-MEL-2 19.9 µM | RXF 393 23 µM | SW-620 68.9 µM | RPMI-8226 29.8 µM | OVCAR-8 36.1 µM | HOP-62 54.1 µM | TK-10 40.6 µM | COLO 205 15 µM | A549 41.5 µM | HL-60 24.6 µM | SNB-75 27.7 µM

C=C(c1ccccc1)[C@@]1(O)CCCC[C@H]1NC(c1ccccc1)c1ccccc1
inactive: IGROV-1 16.2 µM | NCI-H23 8.3 µM | NCI-H226 6.97 µM | SF-539 15.9 µM | UACC-257 10.5 µM | SK-MEL-2 13.3 µM | RXF 393 7.89 µM | SW-620 14.4 µM | RPMI-8226 3.94 µM | OVCAR-8 13.8 µM | HOP-62 15.1 µM | TK-10 16.3 µM | COLO 205 14.2 µM | A549 11.8 µM | HL-60 2.65 µM | SNB-75 28.2 µM
